SMILES strings stand for the structures. “And” between values parts separate entries of the source, which are not always exact repeats. Identical values can stand only once. Toxic doses and inconclusive results are not listed.

The subject of the assay is P388 leukemia ip, CD2F1 mice, survival T/C. Briefly: NCI In Vivo Anticancer Drug Screen. Data for tumor model P388 Leukemia (intraperitoneal) in CD2F1 (CDF1) mice. The conditions noted are these: endpoint: median survival time, higher = longer survival. The procedure, abridged:
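Mice carrying the transplanted tumor received test compound or vehicle. Survival was recorded in each group, and the value is the treated-group measurement divided by that of the vehicle-treated control group.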

Where [1] appears, read: dose: 50.0 mg/kg/injection, schedule: Q01DX009 (ip), vehicle: saline with Tween-80.
The mark [2] stands for this setting: dose: 100.0 mg/kg/injection, schedule: Q01DX009 (ip), vehicle: saline with Tween-80.
The mark [3] stands for this setting: dose: 50.0 mg/kg/injection, schedule: Q01DX005 (ip), vehicle: Klucel (hydroxypropylcellulose) (HPC).
[4] abbreviates: dose: 100.0 mg/kg/injection, schedule: Q01DX005 (ip), vehicle: Klucel (hydroxypropylcellulose) (HPC).
[5] abbreviates: dose: 200.0 mg/kg/injection, schedule: Q01DX005 (ip), vehicle: Klucel (hydroxypropylcellulose) (HPC).
[6] abbreviates: dose: 25.0 mg/kg/injection, schedule: Q01DX001 (ip), vehicle: saline.
Where [7] appears, read: dose: 50.0 mg/kg/injection, schedule: Q01DX001 (ip), vehicle: saline.
[8] abbreviates: dose: 25.0 mg/kg/injection, schedule: Q01DX005 (ip), vehicle: saline.
[9] abbreviates: dose: 50.0 mg/kg/injection, schedule: Q01DX005 (ip), vehicle: saline.
The mark [10] stands for this setting: dose: 50.0 mg/kg/injection, schedule: Q01DX009 (ip), vehicle: saline.
[11] abbreviates: dose: 100.0 mg/kg/injection, schedule: Q01DX009 (ip), vehicle: saline.
Where [12] appears, read: dose: 60.0 mg/kg/injection, schedule: Q01DX005 (ip), vehicle: Klucel (hydroxypropylcellulose) (HPC).
Where [13] appears, read: dose: 120.0 mg/kg/injection, schedule: Q01DX005 (ip), vehicle: Klucel (hydroxypropylcellulose) (HPC).
Setting [14] is: dose: 240.0 mg/kg/injection, schedule: Q01DX005 (ip), vehicle: Klucel (hydroxypropylcellulose) (HPC).

On to `Cc1ccccc1NC(=O)OCC(CCl)(CCl)CCl`, for which the T/C is, setting by setting: (dose: 100.0 mg/kg/injection, schedule: Q04DX002 (ip), vehicle: Klucel (hydroxypropylcellulose) (HPC)) 99 % of control; (dose: 200.0 mg/kg/injection, schedule: Q04DX002 (ip), vehicle: Klucel (hydroxypropylcellulose) (HPC)) 96 % of control; (dose: 400.0 mg/kg/injection, schedule: Q04DX002 (ip), vehicle: Klucel (hydroxypropylcellulose) (HPC)) 89 % of control.
Consider `Cc1cc(NCCO)nc2c1ccc1ccccc12`, for which the T/C is, setting by setting: (dose: 25.0 mg/kg/injection, schedule: Q01DX009 (ip), vehicle: saline with Tween-80) 90 % of control; under setting [1], 91 % of control; under setting [2], 101 % of control.
As for `CCCn1c(C)nc2c(cnn2C)c1=O`, the T/C was 101 % of control under setting [3], 104 % of control under setting [4] and 111 % of control under setting [5].
`CCOC(=O)c1n[nH]c(C)c1CC(N)c1ccccc1` (stereo not drawn): the T/C (dose: 12.5 mg/kg/injection, schedule: Q01DX005 (ip), vehicle: saline with Tween-80) is 100 % of control and the T/C (dose: 25.0 mg/kg/injection, schedule: Q01DX005 (ip), vehicle: saline with Tween-80) is 96 % of control.
Regarding `Cc1ccc(S(=O)(=O)/C=C/C(=O)c2ccc3ccccc3c2)cc1`, the T/C runs as follows: (dose: 100.0 mg/kg/injection, schedule: Q04DX003 (ip), vehicle: saline) 103 % of control; (dose: 200.0 mg/kg/injection, schedule: Q04DX003 (ip), vehicle: saline) 103 % of control; (dose: 400.0 mg/kg/injection, schedule: Q04DX003 (ip), vehicle: saline) 100 % of control.
Take `O=S(=O)(n1ccnc1)C(F)(F)F`: the T/C reads like this: (dose: 12.5 mg/kg/injection, schedule: Q01DX001 (ip), vehicle: saline) 101 % of control; under setting [6], 96 % of control; under setting [7], 96 % of control.
With `O=C1OC(Cl)C=C1c1ccccc1` (stereo not drawn), the T/C reads like this: (dose: 50.0 mg/kg/injection, schedule: Q01DX009 (ip), vehicle: suspension in saline) 95 % of control; (dose: 100.0 mg/kg/injection, schedule: Q01DX009 (ip), vehicle: suspension in saline) 101 % of control; (dose: 200.0 mg/kg/injection, schedule: Q01DX009 (ip), vehicle: suspension in saline) 101 % of control.
In the case of `Oc1ccc(/C=C/c2cc(O)cc3c2C(c2cc(O)cc(O)c2)C(c2ccc(O)c(O)c2)O3)cc1` (stereo not drawn), the T/C is 94 % of control (dose: 7.5 mg/kg/injection, schedule: Q01DX001 (ip), vehicle: Klucel + Tween-80); 94 % of control (dose: 15.0 mg/kg/injection, schedule: Q01DX001 (ip), vehicle: Klucel + Tween-80); 103 % of control (dose: 30.0 mg/kg/injection, schedule: Q01DX001 (ip), vehicle: Klucel + Tween-80).
For `CCC1(C(=O)c2ccccc2)C(C(=O)OC)=NC(=S)N=C1C(=O)OC`, the T/C was 99 % of control (dose: 60.0 mg/kg/injection, schedule: Q01DX005 (ip), vehicle: saline with Tween-80); 90 % of control (dose: 120.0 mg/kg/injection, schedule: Q01DX005 (ip), vehicle: saline with Tween-80); 100 % of control (dose: 240.0 mg/kg/injection, schedule: Q01DX005 (ip), vehicle: saline with Tween-80).
`CCCCCCCCCCC[N+]1(CC)CCCCC1`: the T/C is 112 % of control and 93 % of control (dose: 0.78 mg/kg/injection, schedule: Q01DX009 (ip), vehicle: saline); 100 % of control and 102 % of control (dose: 1.56 mg/kg/injection, schedule: Q01DX009 (ip), vehicle: saline); 112 % of control and 97 % of control (dose: 3.12 mg/kg/injection, schedule: Q01DX009 (ip), vehicle: saline); 124 % of control (dose: 6.25 mg/kg/injection, schedule: Q01DX009 (ip), vehicle: saline).
Regarding `COC(=O)c1nn(-c2ccccc2)c2c1C(=O)c1ccccc1C2=O`, the T/C is, setting by setting: under setting [3], 97 % of control; under setting [4], 92 % of control; under setting [5], 98 % of control.
`CSc1nc2c(nnn2C2OC(CO)C(O)C(O)C2O)c(=O)n1C` (stereo not drawn): the T/C was 97 % of control (dose: 60.0 mg/kg/injection, schedule: Q01DX005 (ip), vehicle: saline); 97 % of control (dose: 120.0 mg/kg/injection, schedule: Q01DX005 (ip), vehicle: saline); 100 % of control (dose: 240.0 mg/kg/injection, schedule: Q01DX005 (ip), vehicle: saline).
In the case of `NC(N)=NS(=O)(=O)c1ccc(N=NC2C(=O)N(c3ccc(Cl)cc3)C(=S)N(c3ccc(Cl)cc3)C2=O)cc1`, the T/C is 103 % of control under setting [8]; 106 % of control and 117 % of control under setting [9]; 104 % of control and 124 % of control (dose: 100.0 mg/kg/injection, schedule: Q01DX005 (ip), vehicle: saline); 108 % of control (dose: 200.0 mg/kg/injection, schedule: Q01DX005 (ip), vehicle: saline).
For `CCOC(=O)c1cnc2ccccn2c1=O`, the T/C under setting [10] is 90 % of control and the T/C under setting [11] was 88 % of control.
Turning to `CC(C)[C@@H]1CC[C@@H](C)C[C@H]1N`, the T/C was 107 % of control (dose: 12.5 mg/kg/injection, schedule: Q01DX005 (ip), vehicle: saline); 98 % of control under setting [8]; 113 % of control (dose: 50.0 mg/kg/injection, schedule: Q01DX005 (ip), vehicle: saline with Tween-80); 100 % of control under setting [9].
As for `CCOC(=O)c1cnc2cc3c(cc2c1Nc1cccc(Cl)c1)OCO3`, the T/C is, setting by setting: under setting [12], 105 % of control; under setting [13], 95 % of control; under setting [14], 108 % of control.
For the compound `CC1([P+](C)(C)C)C2C=CC1CC2` (stereo not drawn), the T/C reads like this: under setting [6], 100 % of control; under setting [7], 103 % of control; (dose: 100.0 mg/kg/injection, schedule: Q01DX001 (ip), vehicle: saline with Tween-80) 105 % of control; (dose: 100.0 mg/kg/injection, schedule: Q01DX001 (ip), vehicle: saline) 100 % of control.
With `O=c1[nH]cc(F)c(=O)[nH]1.[Tl]`, the T/C runs as follows: (dose: 0.78 mg/kg/injection, schedule: Q01DX009 (ip), vehicle: Klucel (hydroxypropylcellulose) (HPC)) 99 % of control; (dose: 1.56 mg/kg/injection, schedule: Q01DX009 (ip), vehicle: Klucel (hydroxypropylcellulose) (HPC)) 103 % of control; (dose: 3.13 mg/kg/injection, schedule: Q01DX009 (ip), vehicle: Klucel (hydroxypropylcellulose) (HPC)) 115 % of control.
As for `O=S(=O)(O)Nc1ccccc1`, the T/C was 100 % of control (dose: 12.5 mg/kg/injection, schedule: Q01DX009 (ip), vehicle: water); 104 % of control (dose: 25.0 mg/kg/injection, schedule: Q01DX009 (ip), vehicle: water); 99 % of control (dose: 50.0 mg/kg/injection, schedule: Q01DX009 (ip), vehicle: water); 100 % of control (dose: 100.0 mg/kg/injection, schedule: Q01DX009 (ip), vehicle: water); 101 % of control (dose: 200.0 mg/kg/injection, schedule: Q01DX009 (ip), vehicle: water).
Turning to `CCOc1cc(/C=N\NC(=O)C(=O)N/N=C\c2ccc(O)c(OCC)c2)ccc1O`, the T/C is 96 % of control (dose: 50.0 mg/kg/injection, schedule: Q01DX009 (ip), vehicle: Klucel (hydroxypropylcellulose) (HPC)); 94 % of control (dose: 100.0 mg/kg/injection, schedule: Q01DX009 (ip), vehicle: Klucel (hydroxypropylcellulose) (HPC)); 94 % of control (dose: 200.0 mg/kg/injection, schedule: Q01DX009 (ip), vehicle: Klucel (hydroxypropylcellulose) (HPC)).
Consider `COC1=C(N2CC2)C(=O)C(OC)=C(N2CC2)C1=O`, for which the T/C (dose: 4.0 mg/kg/injection, schedule: Q04DX003 (ip), vehicle: saline with Tween-80) was 159 % of control.
Consider `[Br][Rh][Br].[NH-]c1nc2ccc(Br)cc2s1.[NH-]c1nc2ccc(Br)cc2s1.[NH-]c1nc2ccc(Br)cc2s1.[NH-]c1nc2ccc(Br)cc2s1`, for which the T/C was 100 % of control under setting [10]; 98 % of control under setting [11]; 100 % of control (dose: 200.0 mg/kg/injection, schedule: Q01DX009 (ip), vehicle: saline).
On to `CC1CN(C(=O)Nc2c(C(C)C)cccc2C(C)C)CC(C)O1` (stereo not drawn), for which the T/C is 96 % of control under setting [1] and 90 % of control under setting [2].
Regarding `Oc1ccccc1C=NCCSSCCN=Cc1ccccc1O`, the T/C runs as follows: under setting [12], 106 % of control; under setting [13], 101 % of control; under setting [14], 108 % of control.
